Laboratory results from ChEMBL document CHEMBL1124880 (J Med Chem, 1990).

Assays:
Rattus norvegicus = species: Rattus norvegicus; assay: Minimal effective dose in an rat anti-immobility effect using behavioral despair test; assay type: functional; conditions: read-out: MED
Adenosine receptor A1 = target: T1, Adenosine receptor A1 (Rattus norvegicus, UniProt P25099); assay: Binding affinity towards the adenosine A1 receptor in cerebral cortices of Sprague-Dawley male rats using [3H]CHA as radioligand.
T1 sequence (P25099 whole entry): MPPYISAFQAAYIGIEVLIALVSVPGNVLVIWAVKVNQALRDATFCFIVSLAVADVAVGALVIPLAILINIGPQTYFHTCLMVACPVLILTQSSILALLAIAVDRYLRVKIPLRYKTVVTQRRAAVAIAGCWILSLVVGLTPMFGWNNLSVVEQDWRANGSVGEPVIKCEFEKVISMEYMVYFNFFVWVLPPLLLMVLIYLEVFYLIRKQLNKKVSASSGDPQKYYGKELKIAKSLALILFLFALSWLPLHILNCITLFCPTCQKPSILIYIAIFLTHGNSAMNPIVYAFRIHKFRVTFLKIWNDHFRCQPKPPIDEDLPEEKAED

Adenosine A2 receptor = Adenosine A2 receptor (Rattus norvegicus, UniProt P29276+P30543)

Structure (SMILES) | minimal effective dose (Rattus norvegicus) [mg/kg] | IC50 (Adenosine receptor A1) [µM] | IC50 (Adenosine A2 receptor) [µM]
CCN(CC)c1nc2ccc(F)cc2n2c(C(F)(F)F)nnc12 | > 32 | – | –
CCc1nnc2c(NC(C)C)nc3ccc(F)cc3n12 | 3.2 | 0.18 | 3.9
CCNc1nc2ccccc2n2cnnc12 | 3.2 | 29 | 110
CCNc1nc2cc(F)c(F)cc2n2cnnc12 | 3.2 | 4.7 | –
Nc1nc2cc(F)ccc2n2cnnc12 | ≤ 32 | 6.1 | 0.56
CCN(CC)c1nc2cc(Cl)ccc2n2cnnc12 | 32 | – | –
CCc1nnc2c(NC(C)C)nc3cc(F)ccc3n12 | ≥ 32 | 0.44 | 48
CCNc1nc2ccc(Cl)cc2n2c(C(F)(F)F)nnc12 | ≤ 32 | – | –
O=C1CCCN1c1nc2ccccc2n2cnnc12 | > 32 | > 100 | –
CCN(CC)c1nc2ccc(Cl)cc2n2c(-c3ccccc3)nnc12 | > 32 | – | –
CCN(CC)c1nc2ccccc2n2c(-c3ccccc3)nnc12 | 1 | – | –
CCc1nnc2c(N3CCCCC3)nc3ccccc3n12 | 10 | 3.5 | –
CC(N)Cc1ccccc1.O=S(=O)(O)O (stereo not given) [AMPHETAMINE SULFATE] | < 1 | – | –
CCC(=O)Nc1nc2ccc(Cl)cc2n2c(CC)nnc12 | ≤ 3.2 | – | –
CCc1nnc2c(N)nc3ccc(Cl)cc3n12 | ≤ 3.2 | 0.11 | 0.028
Nc1nc2cc(Cl)ccc2n2cnnc12 | ≤ 32 | 1.2 | 0.21
c1ccc2c(c1)nc(N1CCCCC1)c1nncn12 | > 32 | 100 | –
CCNc1nc2ccc(Cl)cc2n2c(CC)nnc12 | 3.2 | – | –
CCN(CC)c1nc2cc(Br)c(Br)cc2n2cnnc12 | > 32 | – | –
Nc1nc2ccc(Cl)cc2c2nc(-c3ccco3)nn12 [CGS-15943] | < 32 | – | 0.0028
CCc1nnc2c(N(CC)CC)nc3ccc(Cl)cc3n12 | ≤ 32 | 6.5 | –
CCN(CC)c1nc2ccc(OC)cc2n2cnnc12 | > 32 | – | –
CCCN(CCC)c1nc2ccccc2n2cnnc12 | > 32 | ≥ 100 | –
CCNc1nc2ccc(Cl)cc2n2c(-c3ccccc3)nnc12 | > 32 | – | –
CC(C)Nc1nc2ccc(Cl)cc2n2cnnc12 | 3.2 | 0.37 | 3.3

Structure (SMILES) | minimal effective dose (Rattus norvegicus) [mg/kg] | IC50 (Adenosine receptor A1) [µM] | IC50 (Adenosine A2 receptor) [µM]
CCc1nnc2c(N(C(C)=O)C(C)=O)nc3ccccc3n12 | 3.2 | 9.3 | –
CCc1nnc2c(NCCO)nc3ccccc3n12 | ≤ 32 | 1.6 | –
Nc1nc2ccc(Cl)cc2n2c(-c3ccccc3)nnc12 | > 32 | 0.27 | 0.021
CCc1nnc2c(N)nc3cc(Cl)c(Cl)cc3n12 | 3.2 | 0.11 | 0.023
c1ccc2c(c1)nc(N1CCCC1)c1nncn12 | > 32 | 50 | –
CCN(CC)c1nc2ccc(Cl)cc2n2c(C(F)(F)F)nnc12 | ≤ 32 | > 100 | > 100
CCN(CC)c1nc2cc(F)c(F)cc2n2cnnc12 | 3.2 | 5 | –
CCNc1nc2ccc(F)cc2n2c(C(F)(F)F)nnc12 | 3.2 | 0.23 | 14
CC(=O)N(c1nc2ccc(Cl)cc2n2cnnc12)C(C)C | ≤ 32 | – | –
CCNc1nc2cc(F)ccc2n2cnnc12 | 32 | 11 | 26
CC(=O)N(C(C)=O)c1nc2ccc(Cl)cc2n2cnnc12 | ≤ 32 | – | –
Cc1nnc2c(N)nc3ccc(Cl)cc3n12 | ≤ 32 | 0.35 | –
CC(C)Nc1nc2ccccc2n2c(C(F)(F)F)nnc12 | < 10 | 0.17 | 4.1
CC(=O)Nc1nc2cc(F)ccc2n2cnnc12 | ≤ 32 | – | –
CCNc1nc2ccc(F)cc2n2c(CC)nnc12 | 3.2 | 0.7 | –
CCN(CC)c1nc2ccccc2n2c(C)nnc12 | 3.2 | > 10 | –
CN1CCN(c2nc3ccccc3n3cnnc23)CC1 | > 32 | > 100 | –
Cc1nnc2c(N3CCCC3)nc3ccccc3n12 | > 32 | 49 | –
CCN(CC)c1nc2ccc(Cl)cc2n2c(C)nnc12 | ≤ 32 | 17 | –
CCc1nnc2c(N3CCCC3)nc3ccccc3n12 | > 3.2 | 10 | –
CCc1nnc2c(N(CC)CC)nc3cc(Cl)ccc3n12 | 10 | – | –
CCc1nnc2c(NC(C)=O)nc3cc(OC)ccc3n12 | > 32 | – | –
CN(C)c1nc2ccccc2n2cnnc12 | ≤ 32 | 59 | –
CCc1nnc2c(N3CCOCC3)nc3ccccc3n12 | > 10 | 28 | –
COc1nnc2c(NC(C)C)nc3ccc(Cl)cc3n12 | ≤ 32 | – | –

Structure (SMILES) | minimal effective dose (Rattus norvegicus) [mg/kg] | IC50 (Adenosine receptor A1) [µM] | IC50 (Adenosine A2 receptor) [µM]
CCN(CC)c1nc2ccc(F)cc2n2cnnc12 | 3.2 | > 10 | –
CCCc1nnc2c(N(CC)CC)nc3ccccc3n12 | ≤ 32 | – | –
CC(=O)Nc1nc2ccc(Cl)cc2n2c(C)nnc12 | 3.2 | – | –
CCN(CC)c1nc2ccccc2n2c(C(C)C)nnc12 | ≤ 32 | 19 | –
CCc1nnc2c(N3CCCC3=O)nc3ccccc3n12 | > 32 | – | –
CC(CO)Nc1nc2ccc(F)cc2n2cnnc12 (stereo not given) | > 32 | – | –
CNc1nc2ccccc2n2cnnc12 | 32 | 100 | –
CC(=O)N(C(C)=O)c1nc2ccccc2n2cnnc12 | ≤ 32 | – | –
CC(=O)Nc1nc2ccc(Cl)cc2n2c(C(F)(F)F)nnc12 | ≤ 3.2 | 0.63 | –
CN(C)CCCN1c2ccccc2CCc2ccccc21 [IMIPRAMINE] | > 17.8 | – | –
CCc1nnc2c(NC(C)=O)nc3ccc(Cl)cc3n12 | 1 | 1.8 | –
CC(=O)N(c1nc2cc(Cl)c(Cl)cc2n2cnnc12)C(C)C | > 32 | – | –
CCc1nnc2c(N(CC)CC)nc3cc(Cl)c(Cl)cc3n12 | 3.2 | 100 | –
CCc1nnc2c(N(CC)CC)nc3ccc(OC)cc3n12 | ≤ 32 | – | –
CCc1nnc2c(N(CC)C(C)=O)nc3ccccc3n12 | ≤ 32 | – | –
CCc1nnc2c(N(C)C)nc3cc(Cl)ccc3n12 | 10 | – | –
CCc1nnc2c(N(C)C)nc3cc(Cl)c(Cl)cc3n12 | 3.2 | – | –
Nc1nc2cc(Cl)c(Cl)cc2n2cnnc12 | > 32 | – | –
CCNc1nc2ccccc2n2c(C(F)(F)F)nnc12 | 32 | – | –
CCc1nnc2c(N(CC)CC)nc3ccc(F)cc3n12 | 10 | – | –
CCNc1nc2cc(F)ccc2n2c(CC)nnc12 | ≤ 32 | – | –
CCc1nnc2c(N(CC)CC)nc3cc(F)c(F)cc3n12 | 3.2 | – | –
COc1ccc2c(c1)nc(NC(C)C)c1nncn12 | > 32 | – | –
CC(=O)Nc1nc2ccc(F)cc2n2cnnc12 | ≤ 32 | – | –
CCc1nnc2c(NC(=O)C(C)(C)C)nc3ccc(Cl)cc3n12 | ≤ 32 | – | –

Structure (SMILES) | minimal effective dose (Rattus norvegicus) [mg/kg] | IC50 (Adenosine receptor A1) [µM] | IC50 (Adenosine A2 receptor) [µM]
CC(C)(C)Nc1nc2ccccc2n2cnnc12 | > 32 | 19 | –
Cc1nnc2c(NC(C)C)nc3ccccc3n12 | 10 | 0.85 | –
CCc1nnc2c(NC(C)=O)nc3cc(Cl)ccc3n12 | 3.2 | – | –
CCN(CC)c1nc2ccccc2n2c(C(F)(F)F)nnc12 | ≤ 32 | – | –
CCc1nnc2c(NC(C)=O)nc3ccccc3n12 | 1 | – | –
CCCC(=O)Nc1nc2ccc(Cl)cc2n2c(CC)nnc12 | ≤ 32 | – | –
COc1ccc2c(c1)nc(NC(C)=O)c1nncn12 | ≤ 32 | – | –
CCc1nnc2c(N3CCNCC3)nc3cc(Cl)c(Cl)cc3n12 | ≤ 32 | – | –
CCc1nnc2c(NC(C)=O)nc3cc(F)ccc3n12 | ≤ 3.2 | – | –
CC(=O)Nc1nc2ccc(F)cc2n2c(C(F)(F)F)nnc12 | ≤ 3.2 | 3.6 | –
Oc1cccc(C2=CSC3=Nc4ccccc4CN23)c1 | – | 18 | 0.53
CCc1nnc2c(NC)nc3ccccc3n12 | 3.2 | 6 | –
CCc1nnc2c(NC(C)=O)nc3cc(Cl)c(Cl)cc3n12 | ≤ 3.2 | 1.3 | –
CC(C)Nc1nc2cc(F)c(F)cc2n2cnnc12 | ≤ 3.2 | 1.9 | –
CCc1nnc2c(NC(C)=O)nc3ccc(F)cc3n12 | ≤ 3.2 | – | –
Cc1nnc2c(NC(C)C)nc3ccc(Cl)cc3n12 | 3.2 | 0.1 | –
CCNc1nc2ccccc2n2c(C(C)C)nnc12 | ≤ 32 | 2.2 | –
c1ccc2c(c1)nc(N1CCOCC1)c1nncn12 | > 32 | – | –
CC(=O)Nc1nc2ccccc2n2cnnc12 | ≤ 32 | – | –
CCc1nnc2c(N(C(C)=O)C(C)C)nc3ccc(Cl)cc3n12 | 10 | – | –
CC(C)Nc1nc2cc(Cl)c(Cl)cc2n2cnnc12 | 3.2 | 1 | –
CN(C)c1nc2ccc(F)cc2n2cnnc12 | ≤ 32 | – | –
Clc1ccc2nc(N3CCNCC3)c3nncn3c2c1 | > 32 | – | –
